{
  "source": "patent US5366983A",
  "about": "“Use of quaternary ammonium compounds to remove salmonella contamination from meat products” (The Board of Trustees of The University of Arkansas, priority 1992, dated 1994)",
  "key": {"[1]": {"tested_on": "Salmonella typhimurium on chicken skin", "test": "Prevention of attachment of Salmonella on excised chicken skin (Table F5)", "experimental": "To determine the ability of surfactants to inhibit attachment or produce detachment of Salmonella, the following experiment was conducted. A hole was bored into the bottom of a 150 ml specimen cup. Chicken skin was excised from a drum stick and then placed over the cap of the specimen cup, and then the cap was screwed on. S. typhimurium was diluted 1:5000 with PBS or a surfactant. The surfactants were diluted appropriately. The skin was then inoculated with the solution containing the S. typhimurium and the surfactant for 30 minutes at room temperature.\nFollowing incubation, the skin was washed. The rinse water was diluted appropriately in PBS and then plated onto XLD pour plates. The S. typhimurium was counted and reported as CFU/ml. The skin was swabbed so as to remove any remaining S. typhimurium using a nitroellulose lift and the CFU's/ml on the lift were also counted."}, "[2]": {"tested_on": "Salmonella typhimurium TA100", "test": "Salmonella reversion assay, TA100", "experimental": "Test strains TA98 and TA100 were obtained from Bruce N. Ames (University of California, Berkley, Calif.). Mutagenicities were determined both in the absence of and in the presence of a mammalian liver S9 activating system. S9 is the 9000×g supernatant prepared from liver homogenates from Aroclor 1254 stimulated male Sprague Dawley rats. The S9 was purchased from Molecular Toxicology, Inc. (Anapolis, Md.).\nBacterial broth cultures were grown overnight at 37° with shaking in Oxoid Broth #2. For assays in the absence of S9, a 0.5 ml aliquot of 100 mM Sodium Phosphate Buffer, pH 7.4, was added to sterile 13×100 mm capped culture tubes. For assays in the presence of S9, a 0.5 ml aliquot of 10% S9 mix was added. The S9 mix consisted of 8 mM magnesium chloride, 33 mM potassium chloride, 5 mM glucose-6-phosphate, 4 mM NADP, 100 mM sodium phosphate, pH 7.4 and S9 in a concentration of approximately 1.46 mg protein/ml.\nThe culture tubes were placed in an ice bath and 0.1 ml of the bacterial suspension and 0.1 ml of a DMSO solution of the test compound were added. The mixture was vortexed gently and incubated at 37° for 20 minutes with shaking in a water bath. Molten top agar (2.0 ml) containing 0.5 mM histidine HCl and 0.5 mM biotin were added, and the mixture was vortexed gently and poured onto a minimal glucose plate. After allowing the agar to solidify, the plates were inverted and placed in a 37° incubator in the dark for 48 hours. The revertant (mutant) colonies were counted and the background lawn was examined on all plates. A response that was two times that of the DMSO solvent control was considered a positive response."}, "[3]": {"tested_on": "Salmonella typhimurium on chicken skin", "test": "Effect of surfactants on Salmonella attached to chicken skin, drumsticks (Tables F1-F4)"}, "[4]": {"tested_on": "Salmonella attachment to human buccal epithelial cells", "details": "count on treated cell / untreated cell", "description": "The Salmonella suspension and the human buccal epithelial cells were prepared according to the method described in the detachment experiments of Example 1, except that only the control buccal epithelial cells were suspended in PBS and washed twice at 4500 rpm for 10 minutes. […] The exposure of the buccal epithelial cells to the Salmonella suspension and all subsequent procedures were performed according to the method described in Example 1."}},
  "note": "Where “and” joins values, the source holds several entries; their conditions need not be identical. Equal entries are not always repeated. Where two headings read alike, the source gives them in different places.",
  "data": [
    {"smiles": "CCCCCCCCCCCCCCCC[n+]1ccccc1", "note": "[CPC, cetylpyridinium chloride]", "values": [
      {"measurement": "CFU/ml on XLD agar", "setting": "[1]", "value": 20},
      {"measurement": "Nitrocellulose lift (# of colonies)", "setting": "[1]; skin, 30 minutes at room temperature", "value": "4 # of colonies"},
      {"measurement": "Revertants/plate", "setting": "[2]; TA100, +S9, 5 μg/plate", "value": "129 ± 14", "unit": "Revertants/plate"},
      {"measurement": "Revertants/plate", "setting": "[2]; TA100, +S9, 10 μg/plate", "value": "136 ± 11", "unit": "Revertants/plate"},
      {"measurement": "Revertants/plate", "setting": "[2]; TA100, +S9, 20 μg/plate", "value": "126 ± 14", "unit": "Revertants/plate"},
      {"measurement": "Revertants/plate", "setting": "[2]; TA100, +S9, 40 μg/plate", "value": "125 ± 5", "unit": "Revertants/plate"},
      {"measurement": "Revertants/plate", "setting": "[2]; TA100, +S9, 50 μg/plate", "value": "126 ± 10", "unit": "Revertants/plate"},
      {"measurement": "Revertants/plate", "setting": "[2]; TA100, -S9, 1 μg/plate", "value": "98 ± 5", "unit": "Revertants/plate"},
      {"measurement": "Revertants/plate", "setting": "[2]; TA100, -S9, 5 μg/plate", "value": "133 ± 5", "unit": "Revertants/plate"},
      {"measurement": "Revertants/plate", "setting": "[2]; TA100, -S9, 10 μg/plate", "value": "130 ± 9", "unit": "Revertants/plate"},
      {"measurement": "mutagenicity (in words)", "setting": "[2]; TA100, absence of S9, low concentrations", "value": "nonmutagenic"},
      {"measurement": "mutagenicity and cytotoxicity (in words)", "setting": "[2]; TA100, presence of S9", "value": "neither mutagenic nor cytotoxic"},
      {"measurement": "Enrichment, chicken legs out of ten", "setting": "[3]; 0.1%, 4° C.", "value": "8/10"},
      {"measurement": "Rinse H2O", "setting": "[3]; 0.1%, 4° C.", "value": 0, "unit": "CFU/ml"},
      {"measurement": "Surfactant Solution", "setting": "[3]; 0.1%, 4° C.", "value": 0, "unit": "CFU/ml"},
      {"measurement": "Swabs, chicken legs producing the notated number of colonies", "setting": "[3]; 0.1%, 4° C.", "value": "8/10"},
      {"measurement": "Swabs, colonies", "setting": "[3]; 0.1%, 4° C.", "value": "+ (1-10)"},
      {"measurement": "Wash H2O, chicken legs producing the notated number of colonies", "setting": "[3]; 0.1%, 4° C.", "value": "8/10"},
      {"measurement": "Wash H2O, colonies", "setting": "[3]; 0.1%, 4° C.", "value": "+ (1-10)"},
      {"measurement": "Enrichment, chicken legs out of ten", "setting": "[3]; 0.1%, 25° C.", "value": "0/10"},
      {"measurement": "Rinse H2O", "setting": "[3]; 0.1%, 25° C.", "value": 0, "unit": "CFU/ml"},
      {"measurement": "Surfactant Solution", "setting": "[3]; 0.1%, 25° C.", "value": 0, "unit": "CFU/ml"},
      {"measurement": "Swabs, chicken legs producing the notated number of colonies", "setting": "[3]; 0.1%, 25° C.", "value": "7/10"},
      {"measurement": "Swabs, colonies", "setting": "[3]; 0.1%, 25° C.", "value": "+ (1-10)"},
      {"measurement": "Wash H2O, chicken legs producing the notated number of colonies", "setting": "[3]; 0.1%, 25° C.", "value": "8/10"},
      {"measurement": "Wash H2O, colonies", "setting": "[3]; 0.1%, 25° C.", "value": "++ (11-100)"},
      {"measurement": "Enrichment, chicken legs out of ten", "setting": "[3]; 0.5%, 4° C.", "value": "9/10"},
      {"measurement": "Rinse H2O", "setting": "[3]; 0.5%, 4° C.", "value": 0, "unit": "CFU/ml"},
      {"measurement": "Surfactant Solution", "setting": "[3]; 0.5%, 4° C.", "value": 0, "unit": "CFU/ml"},
      {"measurement": "Swabs, chicken legs producing the notated number of colonies", "setting": "[3]; 0.5%, 4° C.", "value": "9/10"},
      {"measurement": "Swabs, colonies", "setting": "[3]; 0.5%, 4° C.", "value": "+ (1-10)"},
      {"measurement": "Wash H2O, chicken legs producing the notated number of colonies", "setting": "[3]; 0.5%, 4° C.", "value": "7/10"},
      {"measurement": "Wash H2O, colonies", "setting": "[3]; 0.5%, 4° C.", "value": "+ (1-10)"},
      {"measurement": "Enrichment, chicken legs out of ten", "setting": "[3]; 1.0%, 4° C.", "value": "5/10"},
      {"measurement": "Rinse H2O", "setting": "[3]; 1.0%, 4° C.", "value": 0, "unit": "CFU/ml"},
      {"measurement": "Surfactant Solution", "setting": "[3]; 1.0%, 4° C.", "value": 0, "unit": "CFU/ml"},
      {"measurement": "Swabs, chicken legs producing the notated number of colonies", "setting": "[3]; 1.0%, 4° C.", "value": "5/10"},
      {"measurement": "Swabs, colonies", "setting": "[3]; 1.0%, 4° C.", "value": "+ (1-10)"},
      {"measurement": "Wash H2O, chicken legs producing the notated number of colonies", "setting": "[3]; 1.0%, 4° C.", "value": "9/10"},
      {"measurement": "Wash H2O, colonies", "setting": "[3]; 1.0%, 4° C.", "value": "+ (1-10)"},
      {"measurement": "Enrichment, chicken legs out of ten", "setting": "[3]; .01%, 25° C.", "value": "10/10"},
      {"measurement": "Rinse H2O", "setting": "[3]; .01%, 25° C.", "value": "+ (1-10)"},
      {"measurement": "Surfactant Solution", "setting": "[3]; .01%, 25° C.", "value": 0, "unit": "CFU/ml"},
      {"measurement": "Swabs, chicken legs producing the notated number of colonies", "setting": "[3]; .01%, 25° C.", "value": "9/10"},
      {"measurement": "Swabs, colonies", "setting": "[3]; .01%, 25° C.", "value": "++ (11-100)"},
      {"measurement": "Wash H2O, chicken legs producing the notated number of colonies", "setting": "[3]; .01%, 25° C.", "value": "10/10"},
      {"measurement": "Wash H2O, colonies", "setting": "[3]; .01%, 25° C.", "value": "+++ (101-300)"},
      {"measurement": "Enrichment, chicken legs out of ten", "setting": "[3]; .05%, 25° C.", "value": "7/10"},
      {"measurement": "Rinse H2O", "setting": "[3]; .05%, 25° C.", "value": 0, "unit": "CFU/ml"},
      {"measurement": "Surfactant Solution", "setting": "[3]; .05%, 25° C.", "value": 0, "unit": "CFU/ml"},
      {"measurement": "Swabs, chicken legs producing the notated number of colonies", "setting": "[3]; .05%, 25° C.", "value": "9/10"},
      {"measurement": "Swabs, colonies", "setting": "[3]; .05%, 25° C.", "value": "+ (1-10)"},
      {"measurement": "Wash H2O, chicken legs producing the notated number of colonies", "setting": "[3]; .05%, 25° C.", "value": "10/10"},
      {"measurement": "Wash H2O, colonies", "setting": "[3]; .05%, 25° C.", "value": "++ (11-100)"},
      {"measurement": "Counts/con", "setting": "[4]; 2.5 mcg/mL", "value": "62/71"},
      {"measurement": "Counts/con", "setting": "[4]; 5 mcg/mL", "value": "41/71"},
      {"measurement": "Counts/con", "setting": "[4]; 10 mcg/mL", "value": "26/70 and 24/74"},
      {"measurement": "Counts/con", "setting": "[4]; 100 mcg/mL", "value": "30/70 and 23/74"}
    ]}
  ]
}
